Experimental data as given in article PMC5218480 (PLoS ONE, 2017).

System: MV-4-11 cells
Assay: Gene expression microarray analysis (Affymetrix PrimeView) and GSEA
Type: cell-based, human
Set-up: RFU PODN (11730768_x_at) / Fold change /veh PODN (11730768_x_at) / RFU LINC00158 (11744669_a_at) / Fold change /veh LINC00158 (11744669_a_at) / RFU DUSP10 (11751237_a_at) / Fold change /veh DUSP10 (11751237_a_at) / RFU ID3 (11757404_x_at) / Fold change /veh ID3 (11757404_x_at) / RFU PLEKHG5 (11737974_s_at) / Fold change /veh PLEKHG5 (11737974_s_at) / RFU LRRC4B (11730491_at) / Fold change /veh LRRC4B (11730491_at) / RFU GIMAP4 (11747438_a_at) / Fold change /veh GIMAP4 (11747438_a_at) / RFU KRT8 (11758183_x_at) / Fold change /veh KRT8 (11758183_x_at) / RFU CNN1 (11734310_a_at) / Fold change /veh CNN1 (11734310_a_at) / RFU VPS37D (11726825_at) / Fold change /veh VPS37D (11726825_at) / RFU C10orf10 (11716522_x_at) / Fold change /veh C10orf10 (11716522_x_at) / RFU KIR2DL2 /// KIR2DL4 /// KIR2DL5A /// KIR2DL5B /// KIR2DS1 /// KIR2DS2 /// KIR2DS3 /// KIR2DS4 /// KIR3DL3 /// KIR3DL3 /// KIR3DS1 (11738374_at) / Fold change /veh KIR2DL2 /// KIR2DL4 /// KIR2DL5A /// KIR2DL5B /// KIR2DS1 /// KIR2DS2 /// KIR2DS3 /// KIR2DS4 /// KIR3DL3 /// KIR3DL3 /// KIR3DS1 (11738374_at) / RFU C1QL1 (11718748_at) / Fold change /veh C1QL1 (11718748_at) / RFU TMPRSS4 (11747572_a_at) / Fold change /veh TMPRSS4 (11747572_a_at) / RFU HAMP (11756126_x_at) / Fold change /veh HAMP (11756126_x_at) / RFU RNFT2 (11725882_a_at) / Fold change /veh RNFT2 (11725882_a_at) / RFU NR4A2 (11747474_a_at) / Fold change /veh NR4A2 (11747474_a_at) / RFU ABCC12 (11746883_a_at) / Fold change /veh ABCC12 (11746883_a_at) / RFU TMEM136 (11760407_x_at) / Fold change /veh TMEM136 (11760407_x_at) / RFU CLDN22 /// WWC2 (11732394_at) / Fold change /veh CLDN22 /// WWC2 (11732394_at) / RFU HLA-DPB1 (11760878_x_at) / Fold change /veh HLA-DPB1 (11760878_x_at) / RFU SPINT1 (11716480_a_at) / Fold change /veh SPINT1 (11716480_a_at) / RFU GAP43 (11754022_s_at) / Fold change /veh GAP43 (11754022_s_at) / RFU A4GNT (11735810_at) / Fold change /veh A4GNT (11735810_at) / RFU PRB3 (11715151_x_at) / Fold change /veh PRB3 (11715151_x_at) / RFU TUBB4B (11761932_at) / Fold change /veh TUBB4B (11761932_at) / RFU CAPN14 (11732068_a_at) / Fold change /veh CAPN14 (11732068_a_at) / RFU TMCC2 (11721928_a_at) / Fold change /veh TMCC2 (11721928_a_at) / RFU IRGQ (11745062_a_at) / Fold change /veh IRGQ (11745062_a_at) / RFU FAM174B (11720279_a_at) / Fold change /veh FAM174B (11720279_a_at) / RFU TMPRSS4 (11748680_a_at) / Fold change /veh TMPRSS4 (11748680_a_at) / RFU FAM212B (11763350_a_at) / Fold change /veh FAM212B (11763350_a_at) / RFU PLEKHG5 (11743358_a_at) / Fold change /veh PLEKHG5 (11743358_a_at) / RFU ZSCAN30 (11745921_a_at) / Fold change /veh ZSCAN30 (11745921_a_at) / RFU CMKLR1 (11741424_a_at) / Fold change /veh CMKLR1 (11741424_a_at) / RFU LOC101060620 /// MAPK8IP1 (11723275_at) / Fold change /veh LOC101060620 /// MAPK8IP1 (11723275_at) / RFU SPTSSB (11747773_x_at) / Fold change /veh SPTSSB (11747773_x_at) / RFU PRSS12 (11739890_at) / Fold change /veh PRSS12 (11739890_at) / RFU BIN1 (11741810_x_at) / Fold change /veh BIN1 (11741810_x_at) / RFU WNT11 (11732464_a_at) / Fold change /veh WNT11 (11732464_a_at) / RFU C10orf10 (11716521_a_at) / Fold change /veh C10orf10 (11716521_a_at) / RFU C5orf56 (11738089_at) / Fold change /veh C5orf56 (11738089_at) / RFU CYB561 (11721691_x_at) / Fold change /veh CYB561 (11721691_x_at) / RFU ANKRD19P (11752326_a_at) / Fold change /veh ANKRD19P (11752326_a_at) / RFU OR2T12 /// OR2T33 /// OR2T8 (11738714_s_at) / Fold change /veh OR2T12 /// OR2T33 /// OR2T8 (11738714_s_at) / RFU VCAN (11748164_a_at) / Fold change /veh VCAN (11748164_a_at) / RFU JSRP1 (11732532_at) / Fold change /veh JSRP1 (11732532_at) / RFU KRTAP10-11 (11738290_x_at) / Fold change /veh KRTAP10-11 (11738290_x_at) / RFU MYO3A (11730013_a_at) / Fold change /veh MYO3A (11730013_a_at) / RFU EBF3 (11725865_a_at) / Fold change /veh EBF3 (11725865_a_at) / RFU CAMK2N1 (11719241_x_at) / Fold change /veh CAMK2N1 (11719241_x_at) / RFU C5orf56 (11738088_a_at) / Fold change /veh C5orf56 (11738088_a_at) / RFU OLFML3 (11715873_a_at) / Fold change /veh OLFML3 (11715873_a_at) / RFU LOC100653217 /// NTM (11731650_a_at) / Fold change /veh LOC100653217 /// NTM (11731650_a_at) / RFU MAPK11 (11762145_a_at) / Fold change /veh MAPK11 (11762145_a_at) / RFU FIZ1 (11724087_x_at) / Fold change /veh FIZ1 (11724087_x_at) / RFU OASL (11726364_x_at) / Fold change /veh OASL (11726364_x_at) / RFU SOX15 (11748057_x_at) / Fold change /veh SOX15 (11748057_x_at) / RFU CD79A (11719716_a_at) / Fold change /veh CD79A (11719716_a_at) / RFU HIST1H1D (11736915_at) / Fold change /veh HIST1H1D (11736915_at) / RFU CASKIN2 (11723855_a_at) / Fold change /veh CASKIN2 (11723855_a_at) / RFU LOC730098 (11760151_x_at) / Fold change /veh LOC730098 (11760151_x_at) / RFU OR4N2 (11742367_at) / Fold change /veh OR4N2 (11742367_at) / RFU PRRT2 (11749266_a_at) / Fold change /veh PRRT2 (11749266_a_at) / RFU SNX32 (11753110_a_at) / Fold change /veh SNX32 (11753110_a_at) / RFU CDHR5 (11726645_a_at) / Fold change /veh CDHR5 (11726645_a_at) / RFU RCAN1 (11760418_a_at) / Fold change /veh RCAN1 (11760418_a_at) / RFU FAM167A (11723789_a_at) / Fold change /veh FAM167A (11723789_a_at) / RFU FAM26E (11764081_at) / Fold change /veh FAM26E (11764081_at) / RFU ISYNA1 (11749810_s_at) / Fold change /veh ISYNA1 (11749810_s_at) / RFU ACY1 (11761880_at) / Fold change /veh ACY1 (11761880_at) / RFU 11764098_at / Fold change /veh 11764098_at / RFU SAMD14 (11745864_x_at) / Fold change /veh SAMD14 (11745864_x_at) / RFU NPB (11741838_a_at) / Fold change /veh NPB (11741838_a_at) / RFU TMPRSS6 (11731388_a_at) / Fold change /veh TMPRSS6 (11731388_a_at) / RFU KRTAP10-2 (11738614_at) / Fold change /veh KRTAP10-2 (11738614_at) / RFU ARHGAP8 /// PRR5-ARHGAP8 (11727945_x_at) / Fold change /veh ARHGAP8 /// PRR5-ARHGAP8 (11727945_x_at) / RFU KRTAP5-7 /// NADSYN1 (11734609_at) / Fold change /veh KRTAP5-7 /// NADSYN1 (11734609_at) / RFU RASL12 (11751679_a_at) / Fold change /veh RASL12 (11751679_a_at) / RFU CDKN2B (11736163_a_at) / Fold change /veh CDKN2B (11736163_a_at) / RFU PRF1 (11729649_at) / Fold change /veh PRF1 (11729649_at) / RFU, ZNF638 /// ZNF638-IT1 / Fold change vs veh, ZNF638 /// ZNF638-IT1 / RFU, PANK3 / Fold change vs veh, PANK3 / RFU, SH3YL1 / Fold change vs veh, SH3YL1 / RFU, ZEB2 / Fold change vs veh, ZEB2 / RFU, NRIP1 / Fold change vs veh, NRIP1 / RFU, PTTG1IP / Fold change vs veh, PTTG1IP / RFU, CAPN2 / Fold change vs veh, CAPN2 / RFU, MED14 / Fold change vs veh, MED14 / RFU, SNORA58 / Fold change vs veh, SNORA58 / RFU, C1orf63 / Fold change vs veh, C1orf63 / RFU, LRRFIP1 / Fold change vs veh, LRRFIP1 / RFU, NDUFAF7 / Fold change vs veh, NDUFAF7 / RFU, SLC12A2 / Fold change vs veh, SLC12A2 / RFU, IBTK / Fold change vs veh, IBTK / RFU, ESF1 / Fold change vs veh, ESF1 / Fold change vs veh, TMEM50B / RFU, TAOK1 / Fold change vs veh, TAOK1 / RFU, ACBD3 / Fold change vs veh, ACBD3 / RFU, TMA16 / Fold change vs veh, TMA16 / RFU, RWDD3 / Fold change vs veh, RWDD3 / RFU, BCAT1 / Fold change vs veh, BCAT1 / RFU, EDEM3 / Fold change vs veh, EDEM3 / RFU, TMEM33 / Fold change vs veh, TMEM33 / RFU, WDR75 / Fold change vs veh, WDR75 / RFU, AHCTF1 / Fold change vs veh, AHCTF1 / RFU, TFRC / Fold change vs veh, TFRC / RFU, ZDHHC17 / Fold change vs veh, ZDHHC17 / RFU, NOM1 / Fold change vs veh, NOM1 / RFU, ARL8B / Fold change vs veh, ARL8B / RFU, ZBTB11 / Fold change vs veh, ZBTB11 / RFU, TAMM41 / Fold change vs veh, TAMM41 / RFU, KIAA1704 /// LOC100996395 / Fold change vs veh, KIAA1704 /// LOC100996395 / RFU, ING1 / Fold change vs veh, ING1 / RFU, TRMT61B / Fold change vs veh, TRMT61B / RFU, FUBP3 / Fold change vs veh, FUBP3 / RFU, TP53 / Fold change vs veh, TP53 / RFU, TNKS2 / Fold change vs veh, TNKS2 / RFU, ZFP14 / Fold change vs veh, ZFP14 / RFU, ACTR2 / Fold change vs veh, ACTR2 / RFU, PPP3R1 / Fold change vs veh, PPP3R1 / RFU, PIK3R1 / Fold change vs veh, PIK3R1 / RFU, HNRNPA1 / Fold change vs veh, HNRNPA1 / RFU, RNF170 / Fold change vs veh, RNF170 / RFU, ZNF28 / Fold change vs veh, ZNF28 / RFU, RNGTT / Fold change vs veh, RNGTT / RFU, OGT / Fold change vs veh, OGT / RFU, BRD1 / Fold change vs veh, BRD1 / RFU, MARS / Fold change vs veh, MARS / RFU, ZNF655 / Fold change vs veh, ZNF655 / RFU, FAHD1 / Fold change vs veh, FAHD1 / RFU, BDP1 / Fold change vs veh, BDP1 / RFU, LRRCC1 / Fold change vs veh, LRRCC1 / RFU, ARID1A / Fold change vs veh, ARID1A / RFU, ZNF146 / Fold change vs veh, ZNF146 / RFU, ZNF330 / Fold change vs veh, ZNF330 / RFU, GPN3 / Fold change vs veh, GPN3 / RFU, C9orf123 / Fold change vs veh, C9orf123 / RFU, N4BP2L2 / Fold change vs veh, N4BP2L2 / RFU, ARFIP1 / Fold change vs veh, ARFIP1 / RFU, FAM179B / Fold change vs veh, FAM179B / RFU, BCL10 / Fold change vs veh, BCL10 / RFU, UHRF1BP1L / Fold change vs veh, UHRF1BP1L / RFU, BET1 / Fold change vs veh, BET1 / RFU, CNOT2 / Fold change vs veh, CNOT2 / RFU, ZNF268 / Fold change vs veh, ZNF268 / Fold change vs veh, ZNF507 / RFU, DGCR2 / Fold change vs veh, DGCR2 / RFU, WDSUB1 / Fold change vs veh, WDSUB1 / Fold change vs veh, HSP90B1 /// MIR3652 / RFU, ADSS / Fold change vs veh, ADSS / RFU, GK / Fold change vs veh, GK / RFU, ZNF148 / Fold change vs veh, ZNF148 / RFU, TAF9 / Fold change vs veh, TAF9 / RFU, SLC1A5 / Fold change vs veh, SLC1A5 / RFU, SLMO2 / Fold change vs veh, SLMO2 / RFU, ABCC4 / Fold change vs veh, ABCC4 / RFU, LOC101060439 /// RAP1B / Fold change vs veh, LOC101060439 /// RAP1B / RFU, RFX7 / Fold change vs veh, RFX7 / RFU, GTPBP10 / Fold change vs veh, GTPBP10 / RFU, CNEP1R1 / Fold change vs veh, CNEP1R1 / RFU, BIVM-ERCC5 /// ERCC5 / Fold change vs veh, BIVM-ERCC5 /// ERCC5 / RFU, ILF3 / Fold change vs veh, ILF3 / RFU 11762660_at / Fold change /veh 11762660_at / RFU VCAN (11757783_s_at) / Fold change /veh VCAN (11757783_s_at) / RFU DDX43 (11728927_at) / Fold change /veh DDX43 (11728927_at) / RFU KRT8 (11758188_x_at) / Fold change /veh KRT8 (11758188_x_at) / RFU NKD1 (11759106_at) / Fold change /veh NKD1 (11759106_at) / RFU SRD5A1 (11742802_a_at) / Fold change /veh SRD5A1 (11742802_a_at) / RFU TPSAB1 /// TPSB2 (11721975_s_at) / Fold change /veh TPSAB1 /// TPSB2 (11721975_s_at) / RFU GSTM3 (11746129_a_at) / Fold change /veh GSTM3 (11746129_a_at) / RFU IL23R (11737362_x_at) / Fold change /veh IL23R (11737362_x_at) / RFU TMEM51 (11727254_a_at) / Fold change /veh TMEM51 (11727254_a_at) / RFU PIWIL2 (11732686_x_at) / Fold change /veh PIWIL2 (11732686_x_at) / RFU ORM1 (11744905_x_at) / Fold change /veh ORM1 (11744905_x_at) / RFU CCDC152 (11743942_at) / Fold change /veh CCDC152 (11743942_at) / RFU ECM1 (11717891_a_at) / Fold change /veh ECM1 (11717891_a_at) / RFU IL23R (11748794_a_at) / Fold change /veh IL23R (11748794_a_at) / RFU TNFAIP8L3 (11732012_x_at) / Fold change /veh TNFAIP8L3 (11732012_x_at) / RFU MBOAT4 (11741988_at) / Fold change /veh MBOAT4 (11741988_at) / RFU 11764193_at / Fold change /veh 11764193_at / RFU TMEM53 (11763286_at) / Fold change /veh TMEM53 (11763286_at) / RFU MAGEB2 (11727129_at) / Fold change /veh MAGEB2 (11727129_at) / RFU TMEM200A (11744735_a_at) / Fold change /veh TMEM200A (11744735_a_at) / RFU CCDC152 (11751479_a_at) / Fold change /veh CCDC152 (11751479_a_at) / RFU FAM211A (11726209_a_at) / Fold change /veh FAM211A (11726209_a_at) / RFU RGS16 (11746705_a_at) / Fold change /veh RGS16 (11746705_a_at) / RFU VCAN (11755009_s_at) / Fold change /veh VCAN (11755009_s_at) / RFU RHOB (11743442_s_at) / Fold change /veh RHOB (11743442_s_at) / RFU RGS16 (11720943_a_at) / Fold change /veh RGS16 (11720943_a_at) / RFU RGS16 (11720944_at) / Fold change /veh RGS16 (11720944_at) / RFU, VPS4B / Fold change vs veh, VPS4B / RFU, CREB1 / Fold change vs veh, CREB1 / RFU, DNAJC13 / Fold change vs veh, DNAJC13 / RFU, GNAQ / Fold change vs veh, GNAQ / RFU, CDK5R1 / Fold change vs veh, CDK5R1 / RFU, ZRANB3 / Fold change vs veh, ZRANB3 / RFU, CUL4A / Fold change vs veh, CUL4A / RFU, CCNY / Fold change vs veh, CCNY / RFU, UFL1 / Fold change vs veh, UFL1 / RFU, COG3 / Fold change vs veh, COG3 / RFU, DIAPH2 / Fold change vs veh, DIAPH2 / RFU, SKA2 / Fold change vs veh, SKA2 / RFU, AFF3 / Fold change vs veh, AFF3 / RFU, LMF1 / Fold change vs veh, LMF1 / RFU, IPO11 / Fold change vs veh, IPO11 / RFU, DFFB / Fold change vs veh, DFFB / RFU, FOXP1 / Fold change vs veh, FOXP1 / RFU, CARD8 / Fold change vs veh, CARD8 / RFU, STRN3 / Fold change vs veh, STRN3 / RFU, ADK / Fold change vs veh, ADK / RFU, RASSF2 / Fold change vs veh, RASSF2 / RFU, WIPF1 / Fold change vs veh, WIPF1 / RFU, LARP1B / Fold change vs veh, LARP1B / RFU, RASA1 / Fold change vs veh, RASA1 / RFU, RB1 / Fold change vs veh, RB1 / RFU, PPFIA1 / Fold change vs veh, PPFIA1 / RFU, MAT2A / Fold change vs veh, MAT2A / RFU, CCT5 / Fold change vs veh, CCT5 / RFU, WDR92 / Fold change vs veh, WDR92 / RFU, CUX1 / Fold change vs veh, CUX1 / RFU, TTC7A / Fold change vs veh, TTC7A / RFU, TMEM135 / Fold change vs veh, TMEM135 / RFU, DEPTOR / Fold change vs veh, DEPTOR / RFU, CPM / Fold change vs veh, CPM / RFU, DNAJB6 / Fold change vs veh, DNAJB6 / RFU, CACNA2D3 / Fold change vs veh, CACNA2D3 / RFU, DTX4 / Fold change vs veh, DTX4 / RFU, TFCP2 / Fold change vs veh, TFCP2 / RFU, GMCL1 /// GMCL1P1 / Fold change vs veh, GMCL1 /// GMCL1P1 / RFU, AEBP2 / Fold change vs veh, AEBP2 / RFU, SNHG1 /// SNORD22 /// SNORD25 /// SNORD26 /// SNORD27 /// SNORD28 /// SNORD29 /// SNORD31 / Fold change vs veh, SNHG1 /// SNORD22 /// SNORD25 /// SNORD26 /// SNORD27 /// SNORD28 /// SNORD29 /// SNORD31 / Fold change (Aza/veh), C12orf56 (ProbeSet 11735607_a_at) / Fold change (ACY-1035/veh), C12orf56 (ProbeSet 11735607_a_at) / Fold change (Aza/veh), FGFR1OP (ProbeSet 11751329_s_at) / Fold change (ACY-1035/veh), FGFR1OP (ProbeSet 11751329_s_at) / Fold change (Aza/veh), VPS36 (ProbeSet 11739960_a_at) / Fold change (ACY-1035/veh), VPS36 (ProbeSet 11739960_a_at) / RFU SYPL1 (11715823_x_at) / Fold change /veh SYPL1 (11715823_x_at) / RFU IGFBP7 (11715501_s_at) / Fold change /veh IGFBP7 (11715501_s_at) / RFU REEP3 (11722064_at) / Fold change /veh REEP3 (11722064_at) / RFU IGLL1 (11728026_x_at) / Fold change /veh IGLL1 (11728026_x_at): dose or concentration left out as unconfirmed
Details: MV-4-11 cells, 48 hours

With Nc1ccc(-c2cccs2)cc1NC(=O)c1ccc2c(c1)cc(C1CC1)n2CCN1CCOCC1 [ACY-1035] the “Fold change /veh SOX15 (11748057_x_at)” value was 0.91.
